Data on one compound can be found in patent publication US20230146675A1, “PYRIMIDO[5,4-d]PYRIMIDINE DERIVATIVES AS ENT INHIBITORS FOR THE TREATMENT OF CANCERS, AND COMBINATION THEREOF WITH ADENOSINE RECEPTOR ANTAGONISTS” (ITEOS BELGIUM SA, priority 2020, published 2023).

pIC50: −log10 of the molar value.

Common to all, as to format: biochemical
The target in assay [1] is T1, Human phosphodiesterase-3B (Homo sapiens, UniProt Q13370).
T1 construct: host or cells: Sf9 cells
The assay is described as follows: PDE3B (h) assay. The method, then:
The test compound (compound 72), reference compound or water (control) were added to a buffer containing 40 mM Tris/HCl (pH 7.8), 3 mM MgCl2, 1.4 mM DTT, 0.21% BSA, 200 mM NH4Cl, 2 μM cGMP and 0.05 μCi [3H]cGMP. Thereafter, the reaction was initiated by addition of the enzyme (final amount depending on the efficiency of the isolation) and the mixture was incubated for 60 min at 22° C. For basal control measurements, the enzyme was omitted from the reaction mixture. Following incubation SPA beads were added. After 20 min at 22° C. under shaking, the amount of [3H]5′GMP was quantified with a scintillation counter (Topcount, Packard). The results were expressed as a percent inhibition of the control enzyme activity. The standard inhibitory reference compound was zaprinast, which was tested in each experiment at several concentrations to obtain an inhibition curve from which its IC50 value was calculated. • Human phosphodiesterase-3B quantified by measuring the formation of 5′AMP from cAMP using a human recombinant enzyme expressed in Sf9 cells
The test compound (compound 72), reference compound or water (control) were added to a buffer containing 40 mM Tris/HCl (pH 7.4) and 8 mM MgCl2, 450 nM cAMP and 0.25 μCi [3H]cAMP. […] After 30 min at 22° C. under shaking, the amount of [3H]5′AMP was quantified with a scintillation counter (MicroBeta, Perkin Elmer). […]

The target in assay [2] is T2, Human phosphodiesterase-4A1A (Homo sapiens, UniProt P27815).
T2 construct: host or cells: Sf9 cells
The assay is described as follows: PDE4A1A (h) assay. The method, then:
The test compound (compound 72), reference compound or water (control) were added to a buffer containing 40 mM Tris/HCl (pH 7.4) and 8 mM MgCl2, 450 nM cAMP and 0.25 μCi [3H]cAMP. Thereafter, the reaction was initiated by addition of the enzyme (about 3 U) and the mixture was incubated for 20 min at 22° C. For basal control measurements, the enzyme was omitted from the reaction mixture. Following incubation SPA beads were added. After 30 min at 22° C. under shaking, the amount of [3H]5′AMP was quantified with a scintillation counter (MicroBeta, Perkin Elmer). The results were expressed as a percent inhibition of the control enzyme activity.
The test compound (compound 72), reference compound or water (control) were added to a buffer containing 40 mM Tris/HCl (pH 7.4) and 8 mM MgCl2, 450 nM cAMP and 0.25 μCi [3H]cAMP. […] After 30 min at 22° C. under shaking, the amount of [3H]5′AMP was quantified with a scintillation counter (MicroBeta, Perkin Elmer). The results were expressed as a percent inhibition of the control enzyme activity. The standard inhibitory reference compound was Ro 20-1724, which was tested in each experiment at several concentrations to obtain an inhibition curve from which its IC50 value was calculated. • Human phosphodiesterase-4B1 quantified by measuring the formation of 5′AMP from cAMP using a human recombinant enzyme expressed in Sf9 cells.

In assay [3] the target is T3, Human phosphodiesterase-4D2 (Homo sapiens, UniProt Q08499).
T3 construct: host or cells: Sf9 cells
Kind of assay: PDE4D2 (h) assay. The method, then: The test compound (compound 72), reference compound or water (control) were added to a buffer containing 40 mM Tris/HCl (pH 7.4), 8 mM MgCl2 and 1.7 mM EGTA/NaOH, 450 nM cAMP and 0.25 μCi [3H]cAMP. Thereafter, the reaction was initiated by addition of the enzyme (about 1.2 U) and the mixture was incubated for 20 min at 22° C. For basal control measurements, the enzyme was omitted from the reaction mixture. Following incubation SPA beads were added. After 30 min at 22° C. under shaking, the amount of [3H]5′AMP was quantified with a scintillation counter (MicroBeta, Perkin Elmer). The results were expressed as a percent inhibition of the control enzyme activity. The standard inhibitory reference compound was Ro 20-1724, which was tested in each experiment at several concentrations to obtain an inhibition curve from which its IC50 value was calculated. • Human phosphodiesterase-4D2 quantified by measuring the formation of 5′AMP from cAMP using a human recombinant enzyme expressed in Sf9 cells.
The test compound (compound 72), reference compound or water (control) were added to a buffer containing 40 mM Tris/HCl (pH 7.4) and 8 mM MgCl2, 450 nM cAMP and 0.0125 μCi [3H]cAMP. […] After 30 min at 22° C. under shaking, the amount of [3H]5′AMP was quantified with a scintillation counter (Topcount, Packard). The results were expressed as a percent inhibition of the control enzyme activity. […]

The target in assay [4] is T4, Human phosphodiesterase-11A (Homo sapiens, UniProt Q9HCR9).
T4 construct: host or cells: Sf9 cells
Kind of assay: PDE11A (h) assay. The method, then:
The test compound (compound 72), reference compound or water (control) were added to a buffer containing 40 mM Tris/HCl (pH 7.4) and 8 mM MgCl2, 450 nM cAMP and 0.25 μCi [3H]cAMP. Thereafter, the reaction was initiated by addition of the enzyme (about 4 ng) and the mixture was incubated for 15 min at 22° C. For basal control measurements, the enzyme was omitted from the reaction mixture. Following incubation SPA beads were added. After 30 min at 22° C. under shaking, the amount of [3H]5′AMP was quantified with a scintillation counter (Topcount, Packard). The results were expressed as a percent inhibition of the control enzyme activity. The standard inhibitory reference compound was milrinone, which was tested in each experiment at several concentrations to obtain an inhibition curve from which its IC50 value was calculated. • Human phosphodiesterase-11A quantified by measuring the formation of 5′AMP from cAMP using a human recombinant enzyme expressed in Sf9 cells.
The test compound (compound 72), reference compound or water (control) were added to a buffer containing 40 mM Tris/HCl (pH 7.4) and 8 mM MgCl2, 450 nM cAMP and 0.25 μCi [3H]cAMP. […] After 30 min at 22° C. under shaking, the amount of [3H]5′AMP was quantified with a scintillation counter (MicroBeta, Perkin Elmer). The results were expressed as a percent inhibition of the control enzyme activity.

T4 sequence (Q9HCR9 whole entry): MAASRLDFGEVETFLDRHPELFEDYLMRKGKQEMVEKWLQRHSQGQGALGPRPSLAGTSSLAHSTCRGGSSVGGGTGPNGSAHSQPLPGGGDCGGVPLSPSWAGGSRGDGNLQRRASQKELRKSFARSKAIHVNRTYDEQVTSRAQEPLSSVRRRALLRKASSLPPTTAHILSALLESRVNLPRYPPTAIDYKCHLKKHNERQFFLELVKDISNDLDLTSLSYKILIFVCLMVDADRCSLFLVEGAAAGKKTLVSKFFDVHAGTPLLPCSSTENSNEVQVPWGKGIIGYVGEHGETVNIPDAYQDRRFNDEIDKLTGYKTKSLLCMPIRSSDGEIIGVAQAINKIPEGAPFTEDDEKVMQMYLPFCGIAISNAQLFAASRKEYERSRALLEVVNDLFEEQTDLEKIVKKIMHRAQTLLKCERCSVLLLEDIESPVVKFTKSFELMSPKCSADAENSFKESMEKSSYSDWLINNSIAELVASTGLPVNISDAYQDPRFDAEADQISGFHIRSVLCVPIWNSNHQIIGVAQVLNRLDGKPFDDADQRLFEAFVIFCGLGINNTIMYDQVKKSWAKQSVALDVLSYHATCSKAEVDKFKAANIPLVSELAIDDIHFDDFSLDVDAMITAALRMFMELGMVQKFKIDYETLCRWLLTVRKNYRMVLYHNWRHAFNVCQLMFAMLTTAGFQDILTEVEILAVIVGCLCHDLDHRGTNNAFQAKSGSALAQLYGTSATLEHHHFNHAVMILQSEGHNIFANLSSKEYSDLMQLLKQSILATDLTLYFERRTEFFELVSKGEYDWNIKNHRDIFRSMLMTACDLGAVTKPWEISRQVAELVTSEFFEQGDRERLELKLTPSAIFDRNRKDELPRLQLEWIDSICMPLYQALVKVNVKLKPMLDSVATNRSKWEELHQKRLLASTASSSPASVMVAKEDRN
T3 sequence (Q08499 303-809 limits assumed): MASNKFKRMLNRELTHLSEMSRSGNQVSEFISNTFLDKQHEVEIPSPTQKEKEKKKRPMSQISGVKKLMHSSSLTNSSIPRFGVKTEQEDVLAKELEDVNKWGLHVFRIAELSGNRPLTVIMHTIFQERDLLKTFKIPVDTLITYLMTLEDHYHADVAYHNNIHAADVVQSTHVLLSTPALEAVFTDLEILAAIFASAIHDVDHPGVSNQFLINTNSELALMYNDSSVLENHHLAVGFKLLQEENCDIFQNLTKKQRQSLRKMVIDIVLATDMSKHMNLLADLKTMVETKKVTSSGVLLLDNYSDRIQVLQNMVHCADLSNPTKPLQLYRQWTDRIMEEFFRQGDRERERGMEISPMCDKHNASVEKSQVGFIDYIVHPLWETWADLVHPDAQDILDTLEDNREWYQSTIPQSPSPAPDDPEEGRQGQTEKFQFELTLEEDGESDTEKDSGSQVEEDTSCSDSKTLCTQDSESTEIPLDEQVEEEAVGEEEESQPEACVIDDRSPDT
T2 sequence (P27815 1-647 isoform P27815-4): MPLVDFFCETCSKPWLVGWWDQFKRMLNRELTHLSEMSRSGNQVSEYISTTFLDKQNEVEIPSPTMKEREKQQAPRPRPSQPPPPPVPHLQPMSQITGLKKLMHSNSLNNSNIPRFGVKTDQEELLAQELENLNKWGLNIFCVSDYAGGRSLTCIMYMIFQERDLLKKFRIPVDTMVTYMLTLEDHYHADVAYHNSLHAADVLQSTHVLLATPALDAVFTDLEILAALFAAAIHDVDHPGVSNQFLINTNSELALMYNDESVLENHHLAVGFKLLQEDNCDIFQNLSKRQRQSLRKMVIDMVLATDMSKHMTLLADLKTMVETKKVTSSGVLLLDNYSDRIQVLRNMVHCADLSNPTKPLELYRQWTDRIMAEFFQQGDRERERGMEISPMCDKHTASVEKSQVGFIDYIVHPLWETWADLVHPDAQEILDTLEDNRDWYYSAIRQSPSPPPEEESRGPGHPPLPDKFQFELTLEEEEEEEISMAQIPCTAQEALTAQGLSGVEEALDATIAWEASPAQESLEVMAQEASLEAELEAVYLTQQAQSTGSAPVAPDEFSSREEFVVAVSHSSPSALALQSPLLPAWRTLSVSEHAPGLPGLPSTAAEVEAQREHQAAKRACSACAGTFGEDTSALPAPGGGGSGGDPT
T1 sequence (Q13370 whole entry): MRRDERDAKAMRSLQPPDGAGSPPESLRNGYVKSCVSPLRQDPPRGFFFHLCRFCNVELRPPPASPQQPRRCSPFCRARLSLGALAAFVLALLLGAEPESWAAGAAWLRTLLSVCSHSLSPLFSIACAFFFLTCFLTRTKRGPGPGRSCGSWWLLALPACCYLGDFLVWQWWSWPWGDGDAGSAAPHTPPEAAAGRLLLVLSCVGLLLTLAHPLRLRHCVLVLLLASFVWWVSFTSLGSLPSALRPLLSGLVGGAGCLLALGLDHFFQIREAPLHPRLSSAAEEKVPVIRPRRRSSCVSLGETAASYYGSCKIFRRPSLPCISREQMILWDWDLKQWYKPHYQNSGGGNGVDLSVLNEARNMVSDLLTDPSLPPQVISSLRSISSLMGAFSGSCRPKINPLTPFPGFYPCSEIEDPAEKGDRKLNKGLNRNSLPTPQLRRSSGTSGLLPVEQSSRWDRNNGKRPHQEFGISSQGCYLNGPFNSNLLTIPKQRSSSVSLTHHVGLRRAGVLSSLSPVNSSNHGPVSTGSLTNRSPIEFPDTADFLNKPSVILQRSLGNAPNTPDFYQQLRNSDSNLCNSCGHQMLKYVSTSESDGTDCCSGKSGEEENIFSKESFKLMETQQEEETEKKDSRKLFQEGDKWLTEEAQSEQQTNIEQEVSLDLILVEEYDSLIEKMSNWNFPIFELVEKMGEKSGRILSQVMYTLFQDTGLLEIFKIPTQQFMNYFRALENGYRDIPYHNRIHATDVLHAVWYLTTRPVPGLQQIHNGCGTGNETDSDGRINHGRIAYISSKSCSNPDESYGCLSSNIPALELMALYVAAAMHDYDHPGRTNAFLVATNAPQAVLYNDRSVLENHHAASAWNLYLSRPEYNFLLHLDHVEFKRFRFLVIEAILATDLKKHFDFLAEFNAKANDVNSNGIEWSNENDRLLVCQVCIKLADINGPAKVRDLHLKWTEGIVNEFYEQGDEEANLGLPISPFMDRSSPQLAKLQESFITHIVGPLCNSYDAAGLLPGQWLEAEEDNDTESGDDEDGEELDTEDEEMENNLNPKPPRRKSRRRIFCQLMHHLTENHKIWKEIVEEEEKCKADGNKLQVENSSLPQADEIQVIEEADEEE

For the compound `COCCN(CCOC)c1nc(N2CCN(C)C(=O)C2)c2nc(N(CCOC)CCOC)nc(N3CCC(OC)CC3)c2n1` [Compound 72, 4-(2,6-bis(bis(2-methoxyethyl)amino)-8-(4-methoxypiperidin-1-yl)pyrimido[5,4-d]pyrimidin-4-yl)-1-methylpiperazin-2-one], the pIC50 (in general, the IC50 on a negative log10 scale, so that one unit is a factor of ten) is < 5.00 in assay [1], < 5.00 in assay [2], 5.00 to 6.00 in assay [3] and < 5.00 in assay [4]. Also, the “potency for PDE11A as compared to dipyridamole” value in assay [4] is given as “reduced as compared to dipyridamole”.
